pIC50: −log10 of the molar value.
Experiments:
Assay type in all cases: biochemical
Details in all cases: 5 μM substrate, 2 hours at room temperature
Human recombinant HDAC4 = Human recombinant HDAC4 (Homo sapiens (Human), UniProt P56524); assay: HDAC4 assay (Test 1), fluorescence, acetyl-Gly-Ala-Lys(ε-trifluoroacetyl)-AMC substrate
Description: Test 1: HDAC4 Assay Description
(§1) Human recombinant HDAC4 was expressed in full length form (aa 2-1084) in Sf9 insect cells (obtained from ATCC) using baculovirus generated with Bac-to-Bac system (Invitrogen). Test compounds were serially diluted to reach final test concentrations from 0.000128 μM to 10 μM. HDAC4 and test compounds were incubated in 25 mM Tris buffer pH 8.0 containing 137 mM NaCl, 2.7 mM KCl, 1 mM MgCl2, 0.05% (w/v) bovine serum albumine and 0.005% (v/v) Triton-X-100 for 2 hours at room temperature in presence of 5 μM of acetyl-Gly-Ala-Lys(ε-trifluoroacetyl)-AMC (AMC=7-amino-4-methyl coumarin) in a final volume of 9 μl. Control wells with HDAC4 only (positive control) and without HDAC4 (negative control) were included on the microplate. Bovine trypsin (4.5 μl of a 300 nM solution) was added and the plate incubated for additional 15 minutes at room temperature. The plate was placed in a fluorescence microplate reader, and read at an excitation wavelength of 360 nm and an emission wavelength of 450 nm with a 10 nm bandpath. Fluorescence values for all wells containing HDAC4 (positive control and wells with test compound) were corrected by subtracting negative control fluorescence values, and IC50 values were calculated by fitting the dose-response curves to a 4-parameter logistic function.

[1] = target: Human recombinant full length HDAC1 (Homo sapiens (Human), UniProt Q13547); assay: HDAC1 assay (Test 2), acetyl-Gly-Ala-Lys(acetyl)-AMC substrate
Sequence of Human recombinant full length HDAC1 (Q13547 whole entry): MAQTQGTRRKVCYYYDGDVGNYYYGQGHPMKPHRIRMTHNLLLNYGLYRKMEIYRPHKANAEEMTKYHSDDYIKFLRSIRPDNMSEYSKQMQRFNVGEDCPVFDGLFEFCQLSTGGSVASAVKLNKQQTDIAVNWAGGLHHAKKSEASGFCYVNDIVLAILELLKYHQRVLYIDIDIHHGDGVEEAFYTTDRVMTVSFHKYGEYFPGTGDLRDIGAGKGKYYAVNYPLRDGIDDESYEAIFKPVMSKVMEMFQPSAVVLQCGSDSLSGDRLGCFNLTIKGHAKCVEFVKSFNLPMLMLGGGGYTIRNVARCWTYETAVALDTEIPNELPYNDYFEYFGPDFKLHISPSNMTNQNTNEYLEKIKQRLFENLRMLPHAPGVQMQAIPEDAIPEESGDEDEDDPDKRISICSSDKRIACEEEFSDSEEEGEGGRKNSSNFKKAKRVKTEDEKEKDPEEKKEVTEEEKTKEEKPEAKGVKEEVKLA
Description: as §1
Test 2: HDAC1 Assay Description
A similar assay procedure as described in Test 1 was used for HDAC1. Human recombinant full length HDAC1 expressed in a baculovirus expression system was purchased from BPS BioSciences (San Diego, Calif., U.S.A.). The substrate used in the […] assay was 5 μM of acetyl-Gly-Ala-Lys(acetyl)-AMC.

[2] = target: Human recombinant full length HDAC6 (Homo sapiens (Human), UniProt Q9UBN7); assay: HDAC6 assay (Test 3), acetyl-Gly-Ala-Lys(acetyl)-AMC substrate
Sequence of Human recombinant full length HDAC6 (Q9UBN7 whole entry): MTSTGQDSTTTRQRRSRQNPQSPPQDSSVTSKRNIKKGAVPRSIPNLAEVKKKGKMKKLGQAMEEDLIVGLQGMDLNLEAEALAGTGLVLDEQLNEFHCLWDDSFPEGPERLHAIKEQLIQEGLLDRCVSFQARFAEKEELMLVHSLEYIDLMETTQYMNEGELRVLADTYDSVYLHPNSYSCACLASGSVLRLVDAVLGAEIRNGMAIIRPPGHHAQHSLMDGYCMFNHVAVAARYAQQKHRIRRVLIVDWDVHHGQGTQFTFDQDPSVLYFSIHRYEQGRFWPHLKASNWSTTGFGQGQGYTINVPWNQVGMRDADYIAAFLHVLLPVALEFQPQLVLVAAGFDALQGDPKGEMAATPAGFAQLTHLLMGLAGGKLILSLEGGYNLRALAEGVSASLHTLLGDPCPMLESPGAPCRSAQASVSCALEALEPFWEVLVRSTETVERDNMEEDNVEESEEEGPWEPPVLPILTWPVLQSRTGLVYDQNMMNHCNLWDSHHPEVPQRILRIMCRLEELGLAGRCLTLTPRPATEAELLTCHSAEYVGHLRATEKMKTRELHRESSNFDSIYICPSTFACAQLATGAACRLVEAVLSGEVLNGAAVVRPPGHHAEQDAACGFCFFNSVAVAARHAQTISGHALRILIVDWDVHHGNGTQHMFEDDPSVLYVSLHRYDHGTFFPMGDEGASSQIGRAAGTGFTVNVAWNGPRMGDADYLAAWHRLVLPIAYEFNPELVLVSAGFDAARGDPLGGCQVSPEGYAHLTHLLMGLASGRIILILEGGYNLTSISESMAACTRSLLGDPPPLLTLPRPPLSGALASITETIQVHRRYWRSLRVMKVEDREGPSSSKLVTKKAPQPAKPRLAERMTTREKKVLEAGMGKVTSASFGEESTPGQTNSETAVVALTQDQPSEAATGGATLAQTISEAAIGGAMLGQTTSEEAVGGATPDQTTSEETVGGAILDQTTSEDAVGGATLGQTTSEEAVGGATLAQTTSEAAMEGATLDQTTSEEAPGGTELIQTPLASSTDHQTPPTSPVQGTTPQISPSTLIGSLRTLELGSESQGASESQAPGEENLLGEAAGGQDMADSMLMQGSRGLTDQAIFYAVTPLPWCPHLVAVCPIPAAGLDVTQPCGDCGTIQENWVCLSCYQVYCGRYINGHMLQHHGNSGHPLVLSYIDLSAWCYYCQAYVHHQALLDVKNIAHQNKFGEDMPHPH
Description: as §1
Test 3: HDAC6 Assay Description
A similar assay procedure as described in Test 1 was used for HDAC6. Human recombinant full length HDAC6 expressed in a baculovirus expression system was purchased from BPS BioSciences (San Diego, Calif., U.S.A.). The substrate used in the […] assay was 5 μM of acetyl-Gly-Ala-Lys (acetyl)-AMC.

Sequence of Human recombinant HDAC4 (P56524 2-1084): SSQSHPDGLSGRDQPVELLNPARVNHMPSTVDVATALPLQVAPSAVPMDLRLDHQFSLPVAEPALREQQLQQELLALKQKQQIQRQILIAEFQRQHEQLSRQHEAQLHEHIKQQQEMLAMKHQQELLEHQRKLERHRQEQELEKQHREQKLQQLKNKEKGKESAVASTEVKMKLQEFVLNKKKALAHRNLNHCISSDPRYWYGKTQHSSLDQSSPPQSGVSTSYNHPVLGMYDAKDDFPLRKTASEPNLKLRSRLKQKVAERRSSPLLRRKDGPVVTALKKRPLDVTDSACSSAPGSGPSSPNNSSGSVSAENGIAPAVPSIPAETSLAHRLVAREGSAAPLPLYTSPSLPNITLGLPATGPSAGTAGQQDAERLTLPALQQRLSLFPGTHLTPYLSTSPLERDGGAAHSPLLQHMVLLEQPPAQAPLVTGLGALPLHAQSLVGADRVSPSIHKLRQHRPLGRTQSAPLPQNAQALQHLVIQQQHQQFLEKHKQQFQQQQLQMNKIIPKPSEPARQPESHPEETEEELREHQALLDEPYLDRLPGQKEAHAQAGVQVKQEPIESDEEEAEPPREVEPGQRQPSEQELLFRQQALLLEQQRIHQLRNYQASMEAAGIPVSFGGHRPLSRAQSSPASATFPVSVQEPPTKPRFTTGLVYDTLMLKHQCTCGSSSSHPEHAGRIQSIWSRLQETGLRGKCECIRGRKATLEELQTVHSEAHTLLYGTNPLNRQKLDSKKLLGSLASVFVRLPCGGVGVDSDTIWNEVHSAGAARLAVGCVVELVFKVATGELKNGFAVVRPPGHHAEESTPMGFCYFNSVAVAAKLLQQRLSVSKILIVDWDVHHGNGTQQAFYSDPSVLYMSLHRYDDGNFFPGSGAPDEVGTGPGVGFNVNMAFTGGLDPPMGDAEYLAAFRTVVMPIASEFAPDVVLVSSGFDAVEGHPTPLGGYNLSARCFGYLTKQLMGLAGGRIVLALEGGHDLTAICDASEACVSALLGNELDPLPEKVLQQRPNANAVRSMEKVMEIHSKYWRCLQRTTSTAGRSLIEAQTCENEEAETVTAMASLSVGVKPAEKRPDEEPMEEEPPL

| Compound | pIC50 (Human recombinant HDAC4) | pIC50 [1] | pIC50 [2] |
| --- | --- | --- | --- |
| CC(=O)Nc1cnc(-c2noc(C(F)(F)F)n2)cn1 [Example 1, N-(5-(5-(trifluoromethyl)-1,2,4-oxadiazol-3-yl)pyrazin-2-yl)acetamide] | 6.34 | < 5.00 | 5.77 |
| N#Cc1ccc(C(=O)Nc2cnc(-c3noc(C(F)(F)F)n3)cn2)cc1 [Example 2, 4-Cyano-N-(5-(5-(trifluoromethyl)-1,2,4-oxadiazol-3-yl)pyrazin-2-yl)benzamide] | 5.85 | < 5.00 | 5.59 |
| CN(Cc1ccncc1)c1ncc(-c2noc(C(F)(F)F)n2)cn1 [Example 3, N-methyl-N-(pyridin-4-ylmethyl)-5-(5-(trifluoromethyl)-1,2,4-oxadiazol-3-yl)pyrimidin-2-amine] | 7.41 | 5.49 | 5.17 |
| FC(F)(F)c1nc(-c2cnc(NCc3ccccc3)nc2)no1 [Example 4, N-benzyl-5-(5-(trifluoromethyl)-1,2,4-oxadiazol-3-yl)pyrimidin-2-amine] | 7.44 | < 5.00 | 6.49 |
| CN(Cc1ccnc(Cl)c1)c1ncc(-c2noc(C(F)(F)F)n2)cn1 [Example 5, N-((2-chloropyridin-4-yl)methyl)-N-methyl-5-(5-(trifluoromethyl)-1,2,4-oxadiazol-3-yl)pyrimidin-2-amine] | 7.40 | 5.77 | 5.68 |
| FC(F)(F)c1nc(-c2cnc(NCc3ccncc3)nc2)no1 [Example 6, N-(pyridin-4-ylmethyl)-5-(5-(trifluoromethyl)-1,2,4-oxadiazol-3-yl)pyrimidin-2-amine] | 7.36 | 6.21 | 6.00 |
| CC(Nc1ncc(-c2noc(C(F)(F)F)n2)cn1)c1ccccc1 (stereo not drawn) [Example 7, N-(1-phenylethyl)-5-(5-(trifluoromethyl)-1,2,4-oxadiazol-3-yl)pyrimidin-2-amine] | 6.92 | < 5.00 | < 6.40 |
| Cc1ccc(CNc2ncc(-c3noc(C(F)(F)F)n3)cn2)cn1 [Example 8, N-((6-methylpyridin-3-yl)methyl)-5-(5-(trifluoromethyl)-1,2,4-oxadiazol-3-yl)pyrimidin-2-amine] | 7.60 | 5.52 | 6.60 |
| CC(Nc1ncc(-c2noc(C(F)(F)F)n2)cn1)c1ccncc1 (stereo not drawn) [Example 9, N-(1-(pyridin-4-yl)ethyl)-5-(5-(trifluoromethyl)-1,2,4-oxadiazol-3-yl)pyrimidin-2-amine] | 7.66 | 5.39 | 6.25 |
| FC(F)(F)c1nc(-c2cnc(NCc3cccnc3)nc2)no1 [Example 10, N-(pyridin-3-ylmethyl)-5-(5-(trifluoromethyl)-1,2,4-oxadiazol-3-yl)pyrimidin-2-amine] | 6.85 | 5.18 | 5.96 |
| Cc1cccc(CNc2ncc(-c3noc(C(F)(F)F)n3)cn2)n1 [Example 11, N-((6-methylpyridin-2-yl)methyl)-5-(5-(trifluoromethyl)-1,2,4-oxadiazol-3-yl)pyrimidin-2-amine] | 6.62 | 6.29 | 6.26 |
| C[C@@H](Nc1ncc(-c2noc(C(F)(F)F)n2)cn1)c1ccccc1 [Example 12, (R)—N-(1-phenylethyl)-5-(5-(trifluoromethyl)-1,2,4-oxadiazol-3-yl)pyrimidin-2-amine] | 7.31 | 5.46 | 6.47 |
| CC[C@@H](Nc1ncc(-c2noc(C(F)(F)F)n2)cn1)c1ccccc1 [Example 13, (R)—N-(1-phenylpropyl)-5-(5-(trifluoromethyl)-1,2,4-oxadiazol-3-yl)pyrimidin-2-amine] | 7.66 | 5.77 | 6.85 |
| CN(CCc1ccncc1)c1ncc(-c2noc(C(F)(F)F)n2)cn1 [Example 14, N-methyl-N-(2-(pyridin-4-yl)ethyl)-5-(5-(trifluoromethyl)-1,2,4-oxadiazol-3-yl)pyrimidin-2-amine] | 6.96 | 5.12 | < 5.00 |
| CCC(Nc1ncc(-c2noc(C(F)(F)F)n2)cn1)c1ccncc1 (stereo not drawn) [Example 15, N-(1-(pyridin-4-yl)propyl)-5-(5-(trifluoromethyl)-1,2,4-oxadiazol-3-yl)pyrimidin-2-amine] | 7.70 | 5.59 | 6.68 |
| Cc1cc(C(C)Nc2ncc(-c3noc(C(F)(F)F)n3)cn2)ccn1 (stereo not drawn) [Example 16] | 7.36 | 5.80 | 6.46 |
| Cc1cc(CN(C)c2ncc(-c3noc(C(F)(F)F)n3)cn2)ccn1 [Example 17, N-methyl-N-((2-methylpyridin-4-yl)methyl)-5-(5-(trifluoromethyl)-1,2,4-oxadiazol-3-yl)pyrimidin-2-amine] | 7.47 | 5.66 | 5.46 |
| C[C@H](CN(C)C)NC(=O)c1ccc(-c2noc(C(F)(F)F)n2)nc1 [Example 18, (R)—N-(1-(dimethylamino)propan-2-yl)-6-(5-(trifluoromethyl)-1,2,4-oxadiazol-3-yl)nicotinamide] | 6.60 | < 5.00 | < 5.00 |
| CC(CN(C)C)NC(=O)c1ccc(-c2noc(C(F)(F)F)n2)nc1 (stereo not drawn) [Example 19, N-(1-(dimethylamino)propan-2-yl)-6-(5-(trifluoromethyl)-1,2,4-oxadiazol-3-yl)nicotinamide] | 6.46 | 5.77 | < 5.00 |
| C[C@@H](CO)NC(=O)c1ccc(-c2noc(C(F)(F)F)n2)nc1 [Example 20, (S)—N-(1-hydroxypropan-2-yl)-6-(5-(trifluoromethyl)-1,2,4-oxadiazol-3-yl)nicotinamide] | 5.37 | < 5.00 | < 5.00 |
| C[C@H](CN(C)Cc1ccccc1)NC(=O)c1ccc(-c2noc(C(F)(F)F)n2)nc1 [Example 21, (R)—N-(1-(benzyl(methyl)amino)propan-2-yl)-6-(5-(trifluoromethyl)-1,2,4-oxadiazol-3-yl)nicotinamide] | 7.74 | < 5.00 | < 5.00 |
| CCN(CC)C[C@H](NC(=O)c1ccc(-c2noc(C(F)(F)F)n2)nc1)C(C)C [Example 22, (R)—N-(1-(diethylamino)-3-methylbutan-2-yl)-6-(5-(trifluoromethyl)-1,2,4-oxadiazol-3-yl)nicotinamide] | 6.80 | < 5.00 | < 5.00 |
| CCN(CC)C[C@@H](C)NC(=O)c1ccc(-c2noc(C(F)(F)F)n2)nc1 [Example 23, (R)—N-(1-(diethylamino)propan-2-yl)-6-(5-(trifluoromethyl)-1,2,4-oxadiazol-3-yl)nicotinamide] | 7.55 | < 5.00 | < 5.00 |
| C[C@H](CN(C)C)NC(=O)c1ccc(-c2noc(C(F)(F)F)n2)cn1 [Example 24, (R)—N-(1-(dimethylamino)propan-2-yl)-5-(5-(trifluoromethyl)-1,2,4-oxadiazol-3-yl)picolinamide] | 6.00 | < 5.00 | < 5.00 |
| C[C@H](CN(C)C)NC(=O)c1ncc(-c2noc(C(F)(F)F)n2)cc1Cl [Example 25, (R)-3-chloro-N-(1-(dimethylamino)propan-2-yl)-5-(5-(trifluoromethyl)-1,2,4-oxadiazol-3-yl)picolinamide] | 5.44 | < 5.00 | < 5.00 |

From patent US9670193B2 (Novartis AG, priority 2011, dated 2017)
